This note sets out measurements from ChEMBL document CHEMBL1148857, “In vitro and in vivo profile of 5-[(4'-trifluoromethyl-biphenyl-2-carbonyl)-amino]-1H-indole-2-carboxylic acid benzylmethyl carbamoylamide (dirlotapide), a novel potent MTP inhibitor for obesity” (Bioorg Med Chem Lett, 2007).

Data set [1] has as its target Adenosine receptor A3 (Homo sapiens) (UniProt P0DMS8). Nature of the data set: Inhibition of adenosine A3 receptor at 1 uM.
Data set [2] in a line: Plasma clearance in monkey at 0.5 mg/kg, iv. Conditions: rhesus monkey. The data set is classed as ADME, organism-based, Macaca mulatta. Details: dose 0.5 mg/kg, route intravenous.
In data set [3] the target is Adrenergic receptor alpha-1 (Homo sapiens) (UniProt P35348+P25100+P35368). Nature of the data set: Inhibition of adrenergic a1 receptor at 1 uM. The data set is classed as protein assay.
The species named for data set [4] is Homo sapiens. Nature of the data set: Inhibition of GABA receptor at 1 uM.
Data set [5] is described as follows: Intrinsic clearance in human microsomes. The data set is classed as ADME, Microsome.
The species named for data set [6] is Homo sapiens. Nature of the data set: Inhibition of N-type calcium channel at 1 uM.
For data set [7], the target named is 5-hydroxytryptamine receptor 1A (Homo sapiens) (UniProt P08908). Nature of the data set: Inhibition of 5HT1A receptor at 1 uM.
The nature of data set [8]: Volume of distribution at steady state in Beagle dog at 1 mg/kg, iv. The data set is classed as ADME, organism-based, Canis lupus familiaris. Details: dose 1 mg/kg, route intravenous. Conditions: in vivo, read-out: Vdss.
Data set [9] is described as follows: Permeability from basolateral to apical side of the Caco-2 cell membrane at 1 uM in presence of calcium. The format is ADME, cell-based. To be noted: human.
Another data set deals with Plasma. Nature of the data set: Percentage unbound ligand in human blood at 0.2 uM. The data set is classed as ADME, cell-free.
Another data set concerns the target Cytochrome P450 1A2 (Homo sapiens, UniProt P05177). Nature of the data set: Inhibition of CYP1A2. The format is ADME.
Data set [10] is described as follows: AUC (0 to t) in Beagle dog at 0.5 mg/kg, iv. To be noted: plasma. Details: dose 0.5 mg/kg, route intravenous. The data set is classed as ADME, organism-based, Canis lupus familiaris.
Data set [11] is filed under the species Homo sapiens. Nature of the data set: Inhibition of AMPA receptor at 1 uM.
Data set [12] can be described thus: Intrinsic clearance in dog microsomes. The data set is classed as ADME, Canis lupus familiaris, Liver, Microsome.
Data set [13] is described as follows: Plasma clearance in rat at 5 mg/kg, iv. The data set is classed as ADME, organism-based. Details: dose 5 mg/kg, route intravenous.
Data set [14] is described as follows: Tmax in rat at 300 mg/kg, po. The data set is classed as ADME, organism-based. On the set-up: dose 300 mg/kg, route oral. Conditions: in vivo.
For data set [15], the target named is Histamine H2 receptor (Homo sapiens) (UniProt P25021). Nature of the data set: Inhibition of histamine H2 receptor at 1 uM.
Data set [16] can be described thus: AUC (0 to infinity) in rat at 5 mg/kg, iv. The data set is classed as ADME, organism-based. On the set-up: time infinity, dose 5 mg/kg, route intravenous. To be noted: plasma.
Data set [17] is described as follows: AUC (0 to t) in rat at 1 mg/kg, iv. The format is ADME, organism-based. Conditions: plasma. Details: dose 1 mg/kg, route intravenous.
Another data set relates to CYP2C9. Nature of the data set: Metabolic stability in human liver microsome at 0.5 uM in presence of 5 uM CYP2C9 inhibitor sulfaphenazole. Conditions: liver microsomes, with 5 uM sulfaphenazole (CYP2C9 inhibitor). The format is ADME. Background: Liver microsomes are a subcellular fraction often used to study metabolism.
In data set [18] the target is Delta-type opioid receptor (Homo sapiens) (UniProt P41143). Nature of the data set: Inhibition of delta opioid receptor at 1 uM.

Activity calls are given as the source filed them.

Chain of 5-hydroxytryptamine receptor 1A (Homo sapiens) (P08908 whole entry): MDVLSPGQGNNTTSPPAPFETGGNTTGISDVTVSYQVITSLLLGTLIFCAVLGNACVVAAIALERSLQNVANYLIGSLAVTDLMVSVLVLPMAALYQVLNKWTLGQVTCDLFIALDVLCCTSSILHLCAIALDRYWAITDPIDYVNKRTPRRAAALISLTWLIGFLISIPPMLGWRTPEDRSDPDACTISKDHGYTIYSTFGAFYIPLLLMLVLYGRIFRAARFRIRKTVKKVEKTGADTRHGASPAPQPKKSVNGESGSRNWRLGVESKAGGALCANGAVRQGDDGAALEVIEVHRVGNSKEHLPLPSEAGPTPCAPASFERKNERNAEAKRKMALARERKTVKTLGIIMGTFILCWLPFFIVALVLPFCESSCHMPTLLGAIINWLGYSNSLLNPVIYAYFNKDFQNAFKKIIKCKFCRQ
Chain of Delta-type opioid receptor (Homo sapiens) (P41143 whole entry): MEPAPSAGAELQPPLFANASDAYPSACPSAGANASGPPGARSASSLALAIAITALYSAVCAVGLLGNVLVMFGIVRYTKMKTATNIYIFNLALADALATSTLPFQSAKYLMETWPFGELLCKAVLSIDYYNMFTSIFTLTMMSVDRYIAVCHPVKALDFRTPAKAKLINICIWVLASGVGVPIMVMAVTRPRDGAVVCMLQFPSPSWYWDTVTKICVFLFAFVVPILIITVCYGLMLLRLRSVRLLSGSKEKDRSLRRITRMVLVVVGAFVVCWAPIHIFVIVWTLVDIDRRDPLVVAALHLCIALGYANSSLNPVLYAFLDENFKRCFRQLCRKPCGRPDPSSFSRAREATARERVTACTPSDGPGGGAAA
Chain of Histamine H2 receptor (Homo sapiens) (P25021 whole entry): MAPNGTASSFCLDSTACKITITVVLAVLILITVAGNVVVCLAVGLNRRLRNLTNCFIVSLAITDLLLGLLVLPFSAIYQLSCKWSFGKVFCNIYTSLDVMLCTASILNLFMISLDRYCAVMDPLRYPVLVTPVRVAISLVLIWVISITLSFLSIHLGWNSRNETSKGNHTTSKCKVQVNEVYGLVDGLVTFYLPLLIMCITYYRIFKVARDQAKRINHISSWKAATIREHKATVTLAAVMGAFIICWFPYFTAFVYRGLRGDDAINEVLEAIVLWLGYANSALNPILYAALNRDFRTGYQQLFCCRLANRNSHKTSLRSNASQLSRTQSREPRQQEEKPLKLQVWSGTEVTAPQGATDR
Chain of Adenosine receptor A3 (Homo sapiens) (P0DMS8 whole entry): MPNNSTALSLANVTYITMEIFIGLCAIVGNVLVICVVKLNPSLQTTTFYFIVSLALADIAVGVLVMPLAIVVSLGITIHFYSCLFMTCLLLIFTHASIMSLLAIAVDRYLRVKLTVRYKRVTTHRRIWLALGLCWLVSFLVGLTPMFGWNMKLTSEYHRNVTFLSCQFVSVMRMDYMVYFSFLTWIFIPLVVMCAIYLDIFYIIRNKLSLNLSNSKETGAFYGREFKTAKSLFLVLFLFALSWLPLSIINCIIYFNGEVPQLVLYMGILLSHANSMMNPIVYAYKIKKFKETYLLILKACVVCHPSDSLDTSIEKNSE
Chain of Cytochrome P450 1A2 (P05177 whole entry): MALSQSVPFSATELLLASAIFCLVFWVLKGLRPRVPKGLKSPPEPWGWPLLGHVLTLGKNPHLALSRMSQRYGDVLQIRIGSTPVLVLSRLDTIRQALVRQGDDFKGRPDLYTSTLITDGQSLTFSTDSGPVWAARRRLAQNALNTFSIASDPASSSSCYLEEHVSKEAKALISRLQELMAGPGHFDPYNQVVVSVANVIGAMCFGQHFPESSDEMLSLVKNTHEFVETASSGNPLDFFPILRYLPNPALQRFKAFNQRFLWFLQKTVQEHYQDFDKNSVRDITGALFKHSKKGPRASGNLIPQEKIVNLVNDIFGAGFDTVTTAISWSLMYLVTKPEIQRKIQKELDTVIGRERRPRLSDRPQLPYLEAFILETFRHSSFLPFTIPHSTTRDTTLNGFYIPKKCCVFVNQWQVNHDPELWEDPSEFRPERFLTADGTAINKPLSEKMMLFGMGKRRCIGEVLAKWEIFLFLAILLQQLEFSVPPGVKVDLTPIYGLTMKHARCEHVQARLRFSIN

Usually clearance stands for the volume of plasma or blood freed of the substance per unit of time. By CLint scaled is commonly meant the rate of metabolic loss divided by the concentration. Broadly, the Papp B→A is how fast a substance crosses the layer from the basolateral side. What is called IC50 is the concentration that inhibits the measured activity by half. One may read the AUC(0-t) as the area under the concentration-time curve up to a stated or last time point. One may read the Tmax as the time from dosing to the highest level. Broadly, the AUC(0-inf) is the area under the concentration-time curve extrapolated to infinity. A word on the half-life: it is the time needed for the level to fall by half in the phase considered. For the compound `CN(Cc1ccccc1)C(=O)[C@@H](NC(=O)c1cc2cc(NC(=O)c3ccccc3-c3ccc(C(F)(F)F)cc3)ccc2n1C)c1ccccc1` [DIRLOTAPIDE], the outcome (in data set [1]; in data set [3]; in the data set filed under Homo sapiens [4]; in the data set listed under Homo sapiens [6]; in [7]; in the data set filed under Homo sapiens [11]) was inactive. Also, the outcome in data set [15] and in data set [18] was inactive. The clearance in data set [2] worked out at 12 mL/min/kg; in data set [13], 14 mL/min/kg. For the same compound, the CLint scaled is 91 mL/min/kg in data set [5] and 1090 mL/min/kg in data set [12]. Besides, the Vd in [8] was 1 L/kg. Further, the apparent permeability from basolateral to apical (Papp B→A) at 1 µM in data set [9] is 0.4 ×10⁻⁶ cm/s. Moreover, in the data set on Plasma, the Fu turned out to be 0.0097%. In addition, the IC50 at Cytochrome P450 1A2 is over 30 µM. The AUC(0-t) worked out at 1490 ng·h/mL in data set [10] and 485 ng·h/mL in data set [17]. Also, the Tmax in data set [14] turned out to be 6 h. In data set [16], this compound had an AUC(0-inf) of 5890 ng·h/mL. The half-life at 0.5 µM with CYP2C9 worked out at 47 min.
